According to patent US8569229B2, “Compositions and methods which modulate G-protein signaling for the treatment of inflammatory disorders such as asthma and allergic conjunctivitis” (The Children's Hospital of Philadelphia, priority 2008, dated 2013):
“Also recorded” adds a separate entry of the source.

Tests used:
rabbit ASM tissues [1] = experiment: Constrictor responsiveness to acetylcholine (ACh) in isolated rabbit ASM tissues, isometric tension in organ bath; conditions: for effect of pretreatment on PGE2-induced increase in constrictor responsiveness to ACh: PGE2 100 nM x 24 hr; for effect of pretreatment on salmeterol-induced increase in constrictor responsiveness to ACh: salmeterol 10 μM x 24 hr; for effect of the agent alone on constrictor responses to ACh: vehicle-exposed control tissues; for constrictor responsiveness to ACh relative to vehicle-treated controls: tissues exposed 24 hr to the agent
Excerpt: (§1) Detection of PDE4D5 mRNA transcripts: Total RNA was extracted from the cultured ASM cells using the TRIzol method (Invitrogen), and cDNAs were isolated by RT-PCR using the SuperScript First Strand Synthesis System kit from Invitrogen, with the following oligonucleotide primer sets (Integrated DNA Technologies): for PDE4D5, 5′-[…]-3′ (forward; SEQ ID NO: 2) and 5′-[…]-3′ (reverse; SEQ ID NO: 3); and for β-actin, 5′-[…]-3′ (forward; SEQ ID NO: 4) and 5′-[…]-3′ (reverse; SEQ ID NO: 5). The reaction volume was 20 μl and cycling conditions used were 35 cycles of 30 sec denaturation at 95° C., followed by 30 sec annealing at 60° C. and elongation at 72° C. for 30 sec. Ex-Tag (Takara Biotechnology) was used as DNA polymerase. […] Following protein extraction and the addition of gel-loading buffer, the extracts were loaded on a 10% SDS-PAGE gel for immunoblotting after transfer to a PVDF membrane. The membranes were then incubated overnight with monoclonal mouse anti-human primary antibodies directed against phospho-CREB and -ATF1, phospho-ERK1/2, or α-actin, and levels were detected by ECL after a 1-hr incubation with a 1:2,000 dilution of HRP-conjugated rabbit anti-mouse secondary antibody, followed by exposure to autoradiography film. The protein band intensities were quantified by densitometry. siRNA-mediated knockdown of PKA: ASM cells were seeded into 6-well plates and, at ˜40% confluency, the medium was replaced with the reduced serum-containing medium, Opti-MEM (Invitrogen). The cells were then transfected twice during a 24-hr interval with two pools of three siRNA duplexes, each pool targeted against the human PKAα or PKAγ catalytic subunits (Santa Cruz Biotechnology; sc-36240 and sc-36236, respectively), or with a non-targeted control (scrambled) siRNA duplex, using Oligofectamine (Invitrogen) as the transfection agent. The pools of siRNAs were applied to each well at a final concentration of 100 nM for each siRNA preparation. […] Transfection of ASM cells with adeno-βARK-ct: Adenovirus (adeno)-βARK-ct, an adenovirus vector encoding the βARK1 carboxyl-terminal domain which blocks Gβγ signaling (25,26), and adeno-β-gal, an adenovirus vector expressing lacZ as a negative control, were constructed using the AdenoX adenovirus construction kit (BD-Clontech). Recombinant plaques were isolated and propagated in HEK293 cells (Invitrogen), with viral purification using the cesium chloride gradient method, and viral titer detected by plaque assay. The ASM cells were transfected with either of the adenoviral vectors at a multiplicity of infection (MOI) of 100, and experiments were conducted at 24 hr following adenoviral tranfections. Pharmacodynamic studies of constrictor and relaxation responsiveness in rabbit ASM tissues: Following initial sedation and subsequent general anesthesia with intramuscular injections of xylazine (10 mg/kg) and ketamine (50 mg/kg), respectively, rabbits were sacrificed with an intravenously administered overdose of sodium pentobarbital (100 mg/kg). As described previously (16), the tracheae were excised via open thoracotomy, the loose connective tissue and epithelium were scraped and removed, and the tracheae were divided into 8 ring segments, each of 6-8 mm in length. […] After these incubations, the tissues were placed in organ baths containing modified Krebs-Ringer solution aerated with 5% CO2 in oxygen (pH of 7.35-7.40), and attached to force transducers to continuously monitor isometric tension. […] The constrictor and relaxation dose-response curves were analyzed with respect to each tissue's maximal isometric contractile force (Tmax) to ACh and maximal relaxation response (Rmax) to isoproterenol from the initial level of active cholinergic contraction. Statistical analyses: Results are expressed as mean±SE values. Comparisons between groups were made using the Student's t-test (two-tailed) or ANOVA with Tukey's post-test analysis, where appropriate.

rabbit ASM tissues [2] = experiment: Relaxation responsiveness to isoproterenol in isolated rabbit ASM tissues half-maximally contracted with ACh; conditions: for effect of pretreatment on PGE2-induced impaired relaxation to isoproterenol: PGE2 100 nM x 24 hr; for effect of pretreatment on salmeterol-induced impaired relaxation to isoproterenol: salmeterol 10 μM x 24 hr; for maximal relaxation (Rmax) response to isoproterenol: mean±SE, tissues exposed 24 hr to the agent (PGE2 100 nM; salmeterol 10 μM); for relaxation responsiveness to isoproterenol relative to vehicle-treated controls: tissues exposed 24 hr to the agent
Excerpt: as §1

human ASM cells [3] = experiment: Assay of cAMP PDE activity in ASM cell lysates; type: cell-based; conditions: for cAMP PDE (PDE4) activity relative to vehicle-treated control cells: cells exposed 24 hr to the agent; for PDE activity, fold above control: cells incubated 24 hr with the agent (PGE2 or forskolin 100 μM; salmeterol or isoproterenol 10 μM)
Method: Assay of cAMP PDE activity: Levels of cAMP PDE activity were assayed in ASM cell lysates using a colorimetric, non-radioactive enzymatic assay kit from Biomol, as per the manufacture's protocol. PDE activity was determined following exposure of ASM cells for 24 hr to either vehicle alone (control), PGE2 (100 μM), or forskolin (100 μM) in the absence and presence of pretreatment with rolipram (10 μM), cycloheximide (100 μM), actinomycin D (4 μM), or H89 (10 μM).
In each case, the measured levels of PDE activity were standardized to the protein content in the cell extracts.

PDE4D5 mRNA = experiment: Detection of PDE4D5 mRNA transcripts by RT-PCR in ASM cells; type: cell-based, human; conditions: for time of peak PDE4D5 mRNA induction / peak PDE4D5 mRNA expression, fold above unstimulated cells: salmeterol or isoproterenol 10 μM; for peak PDE4D5 mRNA expression, fold above unstimulated cells: densitometric analysis, 3 experiments
Excerpt: as §1

CREB/ATF1 = experiment: Immunoblot analysis of CREB/ATF1 phosphorylation in ASM cells; type: cell-based, human; conditions: PGE2 100 nM
Excerpt: as §1

ERK1/2 = experiment: Immunoblot analysis of ERK1/2 phosphorylation in ASM cells; type: cell-based, human; conditions: for time of peak ERK1/2 phosphorylation / ERK1/2 phosphorylation in cells treated with the agent: isoproterenol or salmeterol 10 μM; for ERK1/2 phosphorylation in cells treated with the agent: PGE2 or forskolin 100 nM
Excerpt: as §1

human ASM cells [4] = experiment: Assay of cAMP PDE activity in ASM cell lysates; type: cell-based; conditions: for effect of pretreatment on PGE2- and forskolin-induced increases in PDE activity: PGE2 or forskolin x 24 hr (100 μM in text, 100 nM in legends); for effect of pretreatment on salmeterol- and isoproterenol-induced increase in PDE activity: salmeterol or isoproterenol 10 μM x 24 hr
human ASM cells [5] = experiment: Assay of cAMP accumulation in cultured human ASM cells; type: cell-based; conditions: for isoproterenol-induced cAMP accumulation after 24 hr exposure to the agent: PGE2 100 nM or salmeterol 10 μM x 24 hr, no rolipram
Excerpt: Animals: Adult New Zealand White rabbits were used in this study, which was approved by the Biosafety and Animal Research Committee of the Joseph Stokes Research Institute at Children's Hospital of Philadelphia. The animals had no signs of respiratory disease for several weeks before the study, and their care and use were in accordance with the “Guide for the Care and Use of Laboratory Animals” prepared by the Institute of Laboratory Animal Resources, National Research Council. Culture and treatment of ASM cells: The human ASM cells were grown in SmBm media supplemented with 10% FBS (BioWhittaker) and maintained throughout in a humidified incubator containing 5% CO2 in air at 37° C. The experimental protocols involved growing the cells to ˜95% confluence in the above medium. […] Assay of cAMP accumulation: In initial studies, intracellular cAMP levels were determined in near confluent ASM cell cultures at varying times following treatment of ASM cells with varying concentrations of isoproterenol (0.1 to 100 μM). […]
Thereafter, in the continued presence of these treatments, cells were exposed for 5 min to isoproterenol (10 μM) at 37° C., and intracellular cAMP concentrations were determined per manufacturer's protocols using a direct cAMP Enzyme Immunoassay Kit (R&D Systems, Minneapolis, Minn.). In both cases, the cAMP measurements were expressed in units of picomoles/milligram protein.

[6] = forskolin 100 μM x 24 hr, data not shown

Row | Compound | effect of pretreatment on PGE2-induced increase in constrictor responsiveness to ACh (rabbit ASM tissues [1]) | effect of pretreatment on salmeterol-induced increase in constrictor responsiveness to ACh (rabbit ASM tissues [1]) | effect of the agent alone on constrictor responses to ACh (rabbit ASM tissues [1]) | effect of pretreatment on PGE2-induced impaired relaxation to isoproterenol (rabbit ASM tissues [2]) | effect of pretreatment on salmeterol-induced impaired relaxation to isoproterenol (rabbit ASM tissues [2]) | effect of pretreatment on PGE2- and forskolin-induced increases in PDE activity (human ASM cells [4]) | effect of pretreatment on salmeterol- and isoproterenol-induced increase in PDE activity (human ASM cells [4]) | constrictor responsiveness to ACh relative to vehicle-treated controls (rabbit ASM tissues [1]) | maximal relaxation (Rmax) response to isoproterenol (rabbit ASM tissues [2]) [%] | relaxation responsiveness to isoproterenol relative to vehicle-treated controls (rabbit ASM tissues [2]) | isoproterenol-induced cAMP accumulation after 24 hr exposure to the agent (human ASM cells [5]; isoproterenol 1.0 μM, 5 min) | cAMP PDE (PDE4) activity relative to vehicle-treated control cells (human ASM cells [3]) | PDE activity, fold above control (human ASM cells [3]) [fold] | time of peak PDE4D5 mRNA induction (PDE4D5 mRNA; PGE2 100 nM) [h] | peak PDE4D5 mRNA expression, fold above unstimulated cells (PDE4D5 mRNA; PGE2 100 nM) [fold] | phosphorylation of CREB and ATF1 in cells treated with the agent (CREB/ATF1; isoproterenol 10 μM) | time of peak ERK1/2 phosphorylation (ERK1/2; PGE2 100 nM) [min] | ERK1/2 phosphorylation in cells treated with the agent (ERK1/2) | further results
1 | O=S(=O)(NCCNC/C=C/c1ccc(Br)cc1)c1cccc2cnccc12 [H89] | abrogated | completely abrogated; also recorded: prevents | no significant effect; also recorded: did not exhibit any significant changes | abrogated | completely ablated; also recorded: prevents | abrogated; also recorded: ablated | prevented; also recorded: ablated |  |  |  |  |  |  |  |  |  |  |  | effect of the agent alone on relaxation responses to isoproterenol (rabbit ASM tissues [2]; vehicle-exposed control tissues): no significant effect; also recorded: did not exhibit any significant changes; effect of the agent alone on basal PDE activity (human ASM cells [3]; no cAMP-elevating agent): no significant change; also recorded: neither H89 nor U0126 alone had a significant effect; effect of pretreatment on PGE2-induced upregulated PDE4D5 mRNA expression (PDE4D5 mRNA; PGE2 100 nM, 6 hr): largely prevented; also recorded: ablated; effect of pretreatment on β2AR agonist (isoproterenol)-induced upregulated PDE4D5 mRNA expression (PDE4D5 mRNA; isoproterenol 10 μM, 6 hr): largely prevented; also recorded: ablated; effect on PGE2-induced phosphorylation of CREB/ATF1 (CREB/ATF1; 30 min): abrogated; also recorded: ablated; effect on PGE2-induced phosphorylation of ERK1/2 (ERK1/2; PGE2 100 nM, 30 min): abrogated; also recorded: ablated
2 | CCCCC[C@H](O)/C=C/[C@H]1[C@H](O)CC(=O)[C@@H]1C/C=C\CCCC(=O)O [PGE2, prostaglandin (PG)E2] |  |  |  |  |  |  |  | significantly increased constrictor responses; also recorded: increased constrictor responsiveness | 31.4±5.4 | impaired relaxation responses; also recorded: impaired ASM relaxation | significantly reduced cAMP responses; also recorded: significantly attenuated | significantly increased; also recorded: significant increase | 3.74 | 6 | 5.9 | transiently increased phosphorylation; also recorded: transiently upregulated expression | 30 | increased expression of phosphorylated ERK1/2; also recorded: significantly increased | time of peak CREB/ATF1 phosphorylation (CREB/ATF1; isoproterenol 10 μM): 30 min; increase in ERK1/2 phosphorylation, fold above control (vehicle-treated) cells (ERK1/2; densitometric ratios, mean±SE, PGE2 30 min, isoproterenol 20 min): 3.76±0.64 fold
3 | COc1ccc(C2CNC(=O)C2)cc1OC1CCCC1 (stereo not shown) [rolipram] | completely abrogated; also recorded: prevents | completely abrogated; also recorded: prevents | only modestly decreased constrictor responses; also recorded: did not exhibit any significant changes; also recorded: no significant effect | completely ablated; also recorded: prevents | completely ablated; also recorded: prevents | completely abrogated; also recorded: ablated | completely abrogated; also recorded: ablated |  |  |  |  |  |  |  |  |  |  |  | effect of pretreatment on forskolin-induced increase in constrictor responsiveness to ACh (rabbit ASM tissues [1]; [6]): completely abrogated; effect of pretreatment on forskolin-induced impaired relaxation to isoproterenol (rabbit ASM tissues [2]; [6]): completely abrogated; isoproterenol-induced cAMP response in PGE2-exposed cells pretreated with the agent (human ASM cells [5]; PGE2 100 nM x 24 hr, rolipram 10 μM): preserved; also recorded: unaltered; isoproterenol-induced cAMP accumulation in cells pretreated with the agent (human ASM cells [5]; rolipram 10 μM, isoproterenol 1.0 μM, 5 min): increased isoproterenol-induced cAMP accumulation; also recorded: slightly increased; isoproterenol-induced cAMP response in salmeterol-exposed cells co-treated with the agent (human ASM cells [5]; salmeterol 10 μM x 24 hr, rolipram 10 μM): largely preserved; also recorded: unaltered
4 | OCc1cc(C(O)CNCCCCCCOCCCCc2ccccc2)ccc1O (stereo not shown) [salmeterol] |  |  |  |  |  |  |  | significantly increased constrictor responses | 33.39±5.1 | impaired relaxation responses | significantly reduced cAMP responses; also recorded: markedly attenuated | significantly increased | ~2 | 6 | 7.3 | Qualitatively similar temporal changes | 20 | increased phosphorylation of ERK1/2; also recorded: enhanced ERK1/2 phosphorylation | 
